For one data set, the system named is SW620 tumors. The data set can be described thus: intratumor pharmacokinetics, SW620 xenografts. It is filed as in vivo, mice. The note with it: single i.p. 100 mg kg^−1. Here is the method: C.B.-17 scid-bg (scid-bg) or C.B.-17 scid (scid) mice were obtained from Charles River Laboratories (Wilmington, Mass., USA) at 5-6 weeks of age and used for studies when greater than 8 weeks of age and/or about 20 grams in size. All animal studies were conducted in a specific pathogen-free environment in accordance with the Internal Institutional Animal Care and Use Committee (IACUC), accredited by the American Association of Laboratory Animal Care under conditions that meet or exceed the standards set by the United States Department of Agriculture Animal Welfare Act, Public Health Service policy on humane care and use of animals and the NIH guide on laboratory animal welfare. Overt signs of dehydration, lack of grooming, lethargy, greater than 15% weight loss as well as tumor volume greater then 20% body weight were used to determine tumor end point. SW620 cell lines were obtained from the ATCC (Manassas, Va.) and cultured according to their recommendations without antibiotics and routinely tested for Mycoplasma and confirmed to be microbe-free by infectious microbe PCR amplification test (IMPACT; Missouri Research Animal Diagnostic Laboratory, Columbia, Mo.) prior to in vivo inoculation. […] Two bisecting diameters were measured with calipers and tumor volumes were estimated from the formula: (length×width^2)/2. […]

A further data set deals with SW620^ABCB1/3 xenografts. As to the kind of experiment: tumor histone H3 phosphorylation, SW620^ABCB1/3 xenografts. It is filed as in vivo, mice. Here is the method:
(§1) SW620 and SW620^ABCB1/3 cells were washed and allowed to grow in drug-free medium overnight. […] The lysates were then probe-sonicated for 10 seconds then clarified by centrifugation at 15,000 g for 15 minutes at 4° C. After treatment with SDS-sample buffer, protein extracts were resolved on NuPAGE Bis-Tris 4-12% gels (Invitrogen (Carlsbad, Calif.)). Samples were electrotransferred to PVDF membranes (Invitrogen (Carlsbad, Calif.)), incubated with primary antibody overnight, and developed using Pierce Dura-Signal chemiluminescence reagents (Pierce, Rockford, Ill.), or Odyssey infrared imaging system from LI-COR Biosciences (Lincoln, Nebr.). C.B.-17 scid-bg (scid-bg) or C.B.-17 scid (scid) mice were obtained from Charles River Laboratories (Wilmington, Mass., USA) at 5-6 weeks of age and used for studies when greater than 8 weeks of age and/or about 20 grams in size. […] Two bisecting diameters were measured with calipers and tumor volumes were estimated from the formula: (length×width^2)/2. […]

The test system of another data set is SW620^ABCB1/3 cells. As to the kind of experiment: histone H3 phosphorylation immunoblot, SW620^ABCB1/3. It is filed as cell-based, human. The method, then:
SW620 and SW620^ABCB1/3 cells were washed and allowed to grow in drug-free medium overnight. […] The lysates were then probe-sonicated for 10 seconds then clarified by centrifugation at 15,000 g for 15 minutes at 4° C. After treatment with SDS-sample buffer, protein extracts were resolved on NuPAGE Bis-Tris 4-12% gels (Invitrogen (Carlsbad, Calif.)). Samples were electrotransferred to PVDF membranes (Invitrogen (Carlsbad, Calif.)), incubated with primary antibody overnight, and developed using Pierce Dura-Signal chemiluminescence reagents (Pierce, Rockford, Ill.), or Odyssey infrared imaging system from LI-COR Biosciences (Lincoln, Nebr.).
On the technique in general: Immunoblotting shows a protein as a band on a membrane.

Another data set concerns cell line panel. The data set can be described thus: 7-day colony formation or viability, cell line panel. It is filed as cell-based, human. Particulars: Homo sapiens; most (sensitive) cell lines of the panel. Here is the method:
SW620^ABCB1/3 and the respective parental cell lines were washed and 500 cells/well were seeded into six-well plates in drug-free medium. Then, 24 hours later, compounds were diluted in DMEM or RPMI, added to the cells, which were cultured at 37° C. for 7-10 days. Cells were then fixed and stained with 0.2% crystal violet to visualize and count colonies.

Another data set concerns SW620 xenografts. As to the kind of experiment: tumor histone H3 phosphorylation, SW620 xenografts. It is filed as in vivo, mice. Here is the method: as §1

For `CCN(CCO)CCCOc1ccc2c(Nc3cc(CC(=O)Nc4cccc(F)c4)[nH]n3)ncnc2c1` [AZD1152 HQPA], the “period of tumor concentration above threshold” value with SW620 tumors is recorded as “at least 24 hours”. Besides, the “inhibition of histone H3 phosphorylation in tumors” value in the data set with SW620^ABCB1/3 xenografts (SW620^ABCB1/3 tumors, single dose 100 mg kg^−1 i.p.) is listed as “transient inhibition”. The “minimum threshold intratumor concentration to inhibit histone H3 phosphorylation” value in the data set on SW620^ABCB1/3 xenografts (SW620^ABCB1/3 xenografts, potency x fold loss in 50% (v/v) mouse plasma) came to 10 µM; in the data set with SW620 xenografts (SW620 xenografts, potency x fold loss in 50% (v/v) mouse plasma), 0.1 µM. Besides, the “intrinsic potency (histone H3 phosphorylation)” value in the data set with SW620^ABCB1/3 cells (SW620^ABCB1/3) stood at 2 µM. In addition, the “more drug required to inhibit histone H3 phosphorylation than the parental line” value with SW620^ABCB1/3 cells (SW620^ABCB1/3 vs parental SW620, 90 minutes) is reported as “approximately 100 fold”. In the data set on cell line panel, the half-maximal inhibitory concentration (IC50) (as a rule, the midpoint of a concentration-inhibition curve) is 4 to 15 nM. The “inhibition of Aurora B (histone H3 phosphorylation) in tumors” value in the data set on SW620 xenografts (parental SW620 xenografts, single dose 100 mg kg^−1 i.p.) is “Sustained inhibition”.

Source of the values: patent publication US20100196907A1, “MARKERS TO PREDICT AND MONITOR RESPONSE TO AURORA KINASE B INHIBITOR THERAPY” (ABBOTT LABORATORIES, priority 2009, published 2010).
